Reference: US11096985B2, “Antimicrobial peptides, their variants and uses” (priority 2015, dated 2021)
Where a SMILES comes first, the peptide text is derived from it. [ ]: non-standard residue; d: D form.

How the values were obtained:
[1] = system: clinical strains of Staphylococcus aureus; assay: MIC, clinical strains of S. aureus; assay type: cell-based; set-up: unit: μg/ml; details: microdilution, Muller Hinton broth-cation adjusted, 0.02% BSA, 0.2% acetic acid
Outline: (§1)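 By broth microdilution, Chain peptides from 0.125 to 128 μg/ml were tested against clinical strains adjusted to 5.0×10^5 cfu/ml, with bacteria in MH broth and yeasts in Potato dextrose broth. After 20–24 h at 37 °C, the lowest peptide concentration without visible growth was scored as MIC.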

[2] = system: clinical strains of Proteus mirabilis; assay: MIC, clinical strains of Proteus mirabilis; assay type: cell-based; set-up: unit: µg/mL; details: microdilution, Muller Hinton broth-cation adjusted, 0.02% BSA, 0.2% acetic acid
Outline: as §1

[3] = system: clinical strains of Escherichia coli; assay: MIC, clinical strains of E. coli; assay type: cell-based; set-up: unit: μg/ml; details: microdilution, Muller Hinton broth-cation adjusted, 0.02% BSA, 0.2% acetic acid
Outline: as §1

[4] = system: clinical strains of C. parapsilosis; assay: MIC, clinical yeast strains, C. parapsilosis; assay type: cell-based, Candida parapsilosis; set-up: unit: μg/ml
Outline: as §1

[5] = system: clinical strains of C. quillermondiae; assay: MIC, clinical yeast strains, C. quillermondiae; assay type: cell-based; details: C. quillermondiae clinical yeast strain 1
Outline: as §1

[6] = system: clinical strains of Serratia marcescens; assay: MIC, clinical strains of Serratia marcescens; assay type: cell-based; set-up: unit: µg/mL; details: microdilution, Muller Hinton broth-cation adjusted, 0.02% BSA, 0.2% acetic acid
Outline: as §1

[7] = system: clinical strains of C. glabrata; assay: MIC, clinical yeast strains, C. glabrata; assay type: cell-based, Candida glabrata; set-up: unit: μg/ml
Outline: as §1

[8] = system: clinical strains of Klebsiella pneumoniae; assay: MIC, clinical strains of K. pneumoniae; assay type: cell-based; set-up: unit: μg/ml; details: microdilution, Muller Hinton broth-cation adjusted, 0.02% BSA, 0.2% acetic acid
Outline: as §1

[9] = system: clinical strains of Streptococcus pneumoniae; assay: MIC, clinical strains of Streptococcus pneumoniae; assay type: cell-based; set-up: unit: µg/mL; details: microdilution, Muller Hinton broth-cation adjusted, 0.02% BSA, 0.2% acetic acid
Outline: as §1

[10] = system: clinical strains of Enterobacter cloacae; assay: MIC, clinical strains of Enterobacter cloacae; assay type: cell-based; set-up: unit: μg/ml; details: microdilution, Muller Hinton broth-cation adjusted, 0.02% BSA, 0.2% acetic acid
Outline: as §1

[11] = system: clinical strains of Pseudomonas aeruginosa; assay: MIC, clinical strains of P. aeruginosa; assay type: cell-based; set-up: unit: μg/ml; details: microdilution, Muller Hinton broth-cation adjusted, 0.02% BSA, 0.2% acetic acid
Outline: as §1

[12] = system: clinical strains of Acinetobacter baumannii; assay: MIC, clinical strains of Acinetobacter baumannii; assay type: cell-based; details: microdilution, Muller Hinton broth-cation adjusted, 0.02% BSA, 0.2% acetic acid
Description: Minimum inhibition concentrations (MICs) were determined against Escherichia coli (ATCC 25922), Staphylococcus aureus (ATCC 25923), Klebsiella pneumoniae (ATCC 10031) and Pseudomonas aeruginosa (ATCC 27853). Also clinical strains of E. coli, K. pneumoniae, E. cloacae, P. aeruginosa, Serratia marcescens, Proteus mirabilis, S. pneumoniae, Acinetobacter baumannii, A. johnsonii and S. aureus were used for MICs assays. Additionally, clinical strains of yeast including Candida albicans, C. glabrata, C. parapsilosis and C. quillermondiae were used. The susceptibility of these microorganisms to Chain peptides were determined using micro broth dilution assay. Colonies of the respective microorganism from Muller Hinton (MH) agar plates incubated overnight were suspended in MH broth media and final concentration of microorganism was adjusted to 5.0×10^5 cfu/ml. An aliquot of 10 μl of each Chain peptide, or gentamicin, tetracycline as reference antibiotics were added in differing concentrations along with 90 μl of bacterial suspension to 96 well polypropylene plates and incubated at 37° C. for 20 to 24 hours. Concentrations of Chain peptides and reference antibiotics ranged from 0.125 to 128 μg/ml and the MICs were recorded as the lowest concentration with no visual growth of bacteria. Similarly, antifungal MICs were tested in Potato dextrose broth.
Clinical strains of yeasts including Candida albicans, C. glabrata, C. parapsilosis and C. quillermondiae were also tested with the 12 Chain peptides. The minimum inhibitory concentration (MICs) varied between these peptides and are presented in Tables 4a, 4b, 4c and 5a, 5b, 5c. Peptides Chain 105, 201 and 308 are broad spectrum antimicrobials with MICs between 0.5-32 μg/ml against all the bacteria and yeasts tested, except Serratia marcescens and Proteus mirabilis, against which the MICs were between 64-128 μg/ml. Peptide Chain 306 has narrow spectrum activity against E.coli at 1 μg/ml and for the rest of the bacterial strains at >32 μg/ml (FIG. 10).

[13] = system: clinical strains of Candida albicans; assay: MIC, clinical yeast strains, Candida albicans; assay type: cell-based; set-up: unit: μg/ml
Outline: as §1

SMILES: CC[C@@H](C)[C@@H](NC(=O)[C@@H](CC(C)C)NC(=O)[C@@H](CCCNC(=N)N)NC(=O)[C@H](N)CCCNC(=N)N)C(=O)N[C@H](Cc1c[nH]c2ccccc12)C(=O)N[C@H](CCCNC(=N)N)C(=O)N[C@H](CCCNC(=N)N)C(=O)N[C@H](Cc1ccccc1)C(=O)N[C@H](CCCCN)C(=O)N[C@H](Cc1c[nH]c2ccccc12)C(=O)N[C@H](CC(C)C)C(=O)N[C@H](CCCNC(=N)N)C(=O)O [Chain204D] (H-[dR][dR][dL][dI][dW][dR][dR][dF][dK][dW][dL][dR]-OH)
- Minimum inhibitory concentration ([1]; Staphylococcus aureus clinical strain 1): 1
- Minimum inhibitory concentration ([1]; Staphylococcus aureus clinical strain 2): 2
- Minimum inhibitory concentration ([1]; Staphylococcus aureus clinical strain 3): 2
- Minimum inhibitory concentration ([1]; Staphylococcus aureus clinical strain 4): 1
- Minimum inhibitory concentration ([1]; Staphylococcus aureus clinical strain 5): 1
- Minimum inhibitory concentration ([2]; Proteus mirabilis clinical strain 1): >128
- Minimum inhibitory concentration ([2]; Proteus mirabilis clinical strain 2): 32
- Minimum inhibitory concentration ([2]; Proteus mirabilis clinical strain 3): 64
- Minimum inhibitory concentration ([2]; Proteus mirabilis clinical strain 4): >128
- Minimum inhibitory concentration ([2]; Proteus mirabilis clinical strain 5): >128
- Minimum inhibitory concentration ([3]; Escherichia coli clinical strain 1): 8
- Minimum inhibitory concentration ([3]; Escherichia coli clinical strain 2): 1
- Minimum inhibitory concentration ([3]; Escherichia coli clinical strain 3): 1
- Minimum inhibitory concentration ([3]; Escherichia coli clinical strain 4): 1
- Minimum inhibitory concentration ([3]; Escherichia coli clinical strain 5): 1
- Minimum inhibitory concentration ([4]; C. parapsilosis clinical yeast strain 1): 4
- Minimum inhibitory concentration ([4]; C. parapsilosis clinical yeast strain 2): 4
- Minimum inhibitory concentration ([4]; C. parapsilosis clinical yeast strain 3): 8
- Minimum inhibitory concentration ([4]; C. parapsilosis clinical yeast strain 4): 8
- Minimum inhibitory concentration [5]: 4
- Minimum inhibitory concentration ([6]; Serratia marcescens clinical strain 1): >128
- Minimum inhibitory concentration ([6]; Serratia marcescens clinical strain 2): >128
- Minimum inhibitory concentration ([6]; Serratia marcescens clinical strain 3): 128
- Minimum inhibitory concentration ([6]; Serratia marcescens clinical strain 4): >128
- Minimum inhibitory concentration ([6]; Serratia marcescens clinical strain 5): >128
- Minimum inhibitory concentration ([7]; C. glabrata clinical yeast strain 1): 4
- Minimum inhibitory concentration ([7]; C. glabrata clinical yeast strain 2): 8
- Minimum inhibitory concentration ([7]; C. glabrata clinical yeast strain 3): 32
- Minimum inhibitory concentration ([7]; C. glabrata clinical yeast strain 4): 32
- Minimum inhibitory concentration ([8]; Klebsiella pneumoniae clinical strain 1): 8
- Minimum inhibitory concentration ([8]; Klebsiella pneumoniae clinical strain 2): 4
- Minimum inhibitory concentration ([8]; Klebsiella pneumoniae clinical strain 3): 16
- Minimum inhibitory concentration ([8]; Klebsiella pneumoniae clinical strain 4): 4
- Minimum inhibitory concentration ([8]; Klebsiella pneumoniae clinical strain 5): 2
- Minimum inhibitory concentration ([9]; Streptococcus pneumoniae clinical strain 1): 4
- Minimum inhibitory concentration ([9]; Streptococcus pneumoniae clinical strain 2): 4
- Minimum inhibitory concentration ([9]; Streptococcus pneumoniae clinical strain 3): 4
- Minimum inhibitory concentration ([9]; Streptococcus pneumoniae clinical strain 4): 4
- Minimum inhibitory concentration ([9]; Streptococcus pneumoniae clinical strain 5): 4
- Minimum inhibitory concentration ([10]; Enterobacter cloacae clinical strain 1): 4
- Minimum inhibitory concentration ([10]; Enterobacter cloacae clinical strain 2): 8
- Minimum inhibitory concentration ([10]; Enterobacter cloacae clinical strain 3): 4
- Minimum inhibitory concentration ([10]; Enterobacter cloacae clinical strain 4): 8
- Minimum inhibitory concentration ([10]; Enterobacter cloacae clinical strain 5): 2
- Minimum inhibitory concentration ([11]; Pseudomonas aeruginosa clinical strain 1): 4
- Minimum inhibitory concentration ([11]; Pseudomonas aeruginosa clinical strain 2): 16
- Minimum inhibitory concentration ([11]; Pseudomonas aeruginosa clinical strain 3): 8
- Minimum inhibitory concentration ([11]; Pseudomonas aeruginosa clinical strain 4): 8
- Minimum inhibitory concentration ([11]; Pseudomonas aeruginosa clinical strain 5): 4
- Minimum inhibitory concentration ([12]; Acinetobacter baumannii clinical strain 1): 4
- Minimum inhibitory concentration ([12]; Acinetobacter baumannii clinical strain 2): 4
- Minimum inhibitory concentration ([12]; Acinetobacter baumannii clinical strain 3): 4
- Minimum inhibitory concentration ([12]; Acinetobacter baumannii clinical strain 4): 4
- Minimum inhibitory concentration ([12]; Acinetobacter baumannii clinical strain 5): 4
- Minimum inhibitory concentration ([13]; Candida albicans clinical yeast strain 1): 8
- Minimum inhibitory concentration ([13]; Candida albicans clinical yeast strain 2): 8
- Minimum inhibitory concentration ([13]; Candida albicans clinical yeast strain 3): 8
- Minimum inhibitory concentration ([13]; Candida albicans clinical yeast strain 4): 8
- Minimum inhibitory concentration ([13]; Candida albicans clinical yeast strain 5): 8
